# Measured values taken from ChEMBL document CHEMBL5143515, “Identification of new halogen-containing 2,4-diphenyl indenopyridin-5-one derivative as a boosting agent for the anticancer responses of clinically available topoisomerase inhibitors” (Eur J Med Chem, 2022).
# Legend:
# DU-145 = test: Antiproliferative activity against human DU-145 cells after 72 hrs by EZ-Cytox colorimetric assay; type: functional, cell-based; conditions: DU-145, 72 h
# HCT-15 = test: Antiproliferative activity against human HCT-15 cells after 72 hrs by EZ-Cytox colorimetric assay; type: functional, cell-based; conditions: HCT-15, 72 h
# HeLa = test: Antiproliferative activity against human HeLa cells after 72 hrs by EZ-Cytox colorimetric assay; type: functional, cell-based
# T47D = test: Antiproliferative activity against human T47D cells after 72 hrs by EZ-Cytox colorimetric assay; type: functional, cell-based
# [1] = Genotoxicity in human HCT-15 cells assessed as production of Ub1-gamma-H2AX at 2 uM and measured by western blot analysis; type: toxicity, cell-based; conditions: hct-15, 2 µM
# [2] = Genotoxicity in human HCT-15 cells assessed as production of gamma-H2AX at 2 uM and measured by western blot analysis; type: toxicity, cell-based; conditions: hct-15, 2 µM
# [3] = Genotoxicity in human HCT-15 cells assessed as production of fragmented DNA tails at 2 uM and measured by comet assay; type: toxicity, cell-based; conditions: hct-15, 2 µM
# [4] = Genotoxicity in human HCT-15 cells assessed as production of Ub1-gamma-H2AX at 0.2 uM and measured by western blot analysis; type: toxicity, cell-based; conditions: hct-15, 0.2 µM
# [5] = Genotoxicity in human HCT-15 cells assessed as production of gamma-H2AX at 0.2 uM and measured by western blot analysis; type: toxicity, cell-based; conditions: hct-15, 0.2 µM
# [6] = Genotoxicity in human HCT-15 cells assessed as production of fragmented DNA tails at 0.2 uM and measured by comet assay; type: toxicity, cell-based; conditions: hct-15, 0.2 µM
# [7] = Toxicity in mouse assessed as reduction in number of white blood cells at 2 to 20 mg/kg; type: organism-based; conditions: in vivo, dose 2-20 mg/kg
# [8] = Toxicity in mouse assessed as reduction in number of absolute neutrophil count at 2 to 20 mg/kg; type: organism-based; conditions: dose 2-20 mg/kg
# [9] = Toxicity in mouse assessed as reduction in number of red blood cells at 20 mg/kg; type: organism-based; conditions: in vivo
# [10] = Toxicity in mouse assessed as reduction in hemoglobin level at 20 mg/kg; type: organism-based; conditions: in vivo
# [11] = Toxicity in mouse assessed as increase in mean corpuscular volume of RBC at 20 mg/kg; type: organism-based, Erythrocyte; conditions: in vivo
# [12] = Toxicity in mouse assessed as increase in d red cell distribution width at 20 mg/kg; type: organism-based; conditions: in vivo
# [13] = Toxicity in mouse assessed as reduction in number of red blood cells at 2 mg/kg; type: organism-based; conditions: in vivo
# [14] = Toxicity in mouse assessed as reduction in hemoglobin level at 2 mg/kg; type: organism-based; conditions: in vivo
# [15] = Toxicity in mouse assessed as increase in mean corpuscular volume of RBC at 2 mg/kg; type: organism-based, Erythrocyte; conditions: in vivo
# [16] = Toxicity in mouse assessed as increase in d red cell distribution width at 2 mg/kg; type: organism-based; conditions: in vivo
# [17] = target: T1, DNA topoisomerase 1 (Homo sapiens) (UniProt P11387); test: Inhibition of recombinant human topoisomerase 1 assessed as relaxation of supercoiled plasmid pBR322 DNA at 100 uM by agarose gel electrophoresis (reference value: […]%)
# T1 sequence (whole entry): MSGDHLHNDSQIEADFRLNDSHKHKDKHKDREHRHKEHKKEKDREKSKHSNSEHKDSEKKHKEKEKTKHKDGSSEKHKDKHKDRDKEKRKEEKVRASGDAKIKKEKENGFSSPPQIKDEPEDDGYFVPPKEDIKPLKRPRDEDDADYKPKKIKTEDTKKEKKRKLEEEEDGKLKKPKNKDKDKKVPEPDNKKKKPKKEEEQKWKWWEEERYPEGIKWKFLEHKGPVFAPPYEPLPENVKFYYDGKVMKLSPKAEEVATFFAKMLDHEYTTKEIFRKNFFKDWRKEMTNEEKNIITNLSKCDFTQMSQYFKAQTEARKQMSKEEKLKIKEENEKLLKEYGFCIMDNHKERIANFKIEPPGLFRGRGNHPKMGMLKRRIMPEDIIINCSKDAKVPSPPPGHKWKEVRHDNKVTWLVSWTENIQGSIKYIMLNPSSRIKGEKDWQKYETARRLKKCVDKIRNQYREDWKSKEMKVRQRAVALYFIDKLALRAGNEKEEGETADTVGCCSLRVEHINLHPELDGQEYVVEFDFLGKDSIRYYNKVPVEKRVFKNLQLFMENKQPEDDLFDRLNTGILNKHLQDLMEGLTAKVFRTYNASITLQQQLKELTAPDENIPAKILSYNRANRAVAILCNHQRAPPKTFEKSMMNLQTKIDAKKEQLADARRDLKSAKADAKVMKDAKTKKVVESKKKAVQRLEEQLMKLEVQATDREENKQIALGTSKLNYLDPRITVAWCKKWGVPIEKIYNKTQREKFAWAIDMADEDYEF
# [18] = target: T1, DNA topoisomerase 1 (Homo sapiens); test: Inhibition of recombinant human topoisomerase 1 assessed as relaxation of supercoiled plasmid pBR322 DNA at 20 uM by agarose gel electrophoresis relative to control
# [19] = target: DNA topoisomerase 2-alpha (Homo sapiens) (UniProt P11388); test: Inhibition of recombinant human topoisomerase 2alpha assessed as relaxation of supercoiled plasmid pBR322 DNA at 100 uM by agarose gel electrophoresis (reference value: 84.9%)
# Chain of DNA topoisomerase 2-alpha (Homo sapiens) (P11388 whole entry): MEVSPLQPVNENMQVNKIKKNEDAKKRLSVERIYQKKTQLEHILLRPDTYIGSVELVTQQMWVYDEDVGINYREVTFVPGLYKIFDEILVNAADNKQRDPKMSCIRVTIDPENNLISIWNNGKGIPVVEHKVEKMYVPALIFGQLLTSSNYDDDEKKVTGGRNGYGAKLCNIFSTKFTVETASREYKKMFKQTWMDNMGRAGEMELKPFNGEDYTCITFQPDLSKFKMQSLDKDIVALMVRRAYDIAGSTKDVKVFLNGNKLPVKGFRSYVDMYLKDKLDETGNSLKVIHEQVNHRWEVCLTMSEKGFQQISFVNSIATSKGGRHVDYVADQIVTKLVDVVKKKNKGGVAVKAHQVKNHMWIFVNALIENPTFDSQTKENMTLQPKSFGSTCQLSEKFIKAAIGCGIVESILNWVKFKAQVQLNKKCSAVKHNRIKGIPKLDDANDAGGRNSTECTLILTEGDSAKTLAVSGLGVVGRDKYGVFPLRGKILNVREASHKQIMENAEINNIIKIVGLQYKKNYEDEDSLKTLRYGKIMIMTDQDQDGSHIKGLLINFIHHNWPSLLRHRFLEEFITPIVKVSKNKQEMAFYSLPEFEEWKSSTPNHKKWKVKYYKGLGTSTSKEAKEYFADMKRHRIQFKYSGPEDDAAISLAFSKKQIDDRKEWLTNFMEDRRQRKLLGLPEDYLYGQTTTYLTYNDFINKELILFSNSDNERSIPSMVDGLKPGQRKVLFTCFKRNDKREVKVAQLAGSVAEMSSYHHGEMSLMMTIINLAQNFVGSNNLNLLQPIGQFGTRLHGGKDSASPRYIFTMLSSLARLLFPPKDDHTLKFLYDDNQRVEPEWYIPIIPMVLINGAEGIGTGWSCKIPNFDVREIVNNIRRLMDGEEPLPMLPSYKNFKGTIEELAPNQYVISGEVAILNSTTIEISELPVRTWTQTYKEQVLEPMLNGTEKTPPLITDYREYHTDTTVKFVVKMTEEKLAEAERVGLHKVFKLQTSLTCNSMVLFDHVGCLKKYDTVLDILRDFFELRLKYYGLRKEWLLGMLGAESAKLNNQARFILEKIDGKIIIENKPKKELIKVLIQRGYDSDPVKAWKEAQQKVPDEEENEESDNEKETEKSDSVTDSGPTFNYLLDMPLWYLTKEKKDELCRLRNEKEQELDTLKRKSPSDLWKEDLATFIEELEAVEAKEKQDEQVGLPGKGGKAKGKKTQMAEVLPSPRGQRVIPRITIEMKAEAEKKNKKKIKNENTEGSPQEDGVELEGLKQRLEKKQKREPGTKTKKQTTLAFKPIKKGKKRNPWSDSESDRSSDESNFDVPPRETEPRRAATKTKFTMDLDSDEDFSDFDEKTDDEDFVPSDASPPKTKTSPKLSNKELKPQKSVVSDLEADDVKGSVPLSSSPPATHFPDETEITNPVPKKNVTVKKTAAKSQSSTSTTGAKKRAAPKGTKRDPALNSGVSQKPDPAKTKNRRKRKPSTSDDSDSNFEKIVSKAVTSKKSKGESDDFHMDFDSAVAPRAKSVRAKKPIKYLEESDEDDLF
# [20] = target: DNA topoisomerase 2-alpha (Homo sapiens) (UniProt P11388); test: Inhibition of recombinant human topoisomerase 2alpha assessed as relaxation of supercoiled plasmid pBR322 DNA at 20 uM by agarose gel electrophoresis relative to control
# [21] = target: T1, DNA topoisomerase 1 (Homo sapiens); test: Inhibition of recombinant human topoisomerase 1 assessed as relaxation of supercoiled plasmid pBR322 DNA at 100 uM by agarose gel electrophoresis relative to control
# [22] = target: DNA topoisomerase 2-alpha (Homo sapiens) (UniProt P11388); test: Inhibition of recombinant human topoisomerase 2alpha assessed as relaxation of supercoiled plasmid pBR322 DNA at 100 uM by agarose gel electrophoresis relative to control
# [23] = Genotoxicity in human HCT-15 cells assessed as production of Ub1-gamma-H2AX at 100 nM and measured by western blot analysis; type: toxicity, cell-based; conditions: hct-15, 0.1 µM
# [24] = Genotoxicity in human HCT-15 cells assessed as production of gamma-H2AX at 100 nM and measured by western blot analysis; type: toxicity, cell-based; conditions: hct-15, 0.1 µM
# [25] = Genotoxicity in human HCT-15 cells assessed as production of fragmented DNA tails at 100 nM and measured by comet assay; type: toxicity, cell-based; conditions: hct-15, 0.1 µM
# [26] = Genotoxicity in human HCT-15 cells assessed as production of Ub1-gamma-H2AX at 1 nM and measured by western blot analysis; type: toxicity, cell-based; conditions: hct-15, 0.001 µM
# [27] = Genotoxicity in human HCT-15 cells assessed as production of gamma-H2AX at 1 nM and measured by western blot analysis; type: toxicity, cell-based; conditions: hct-15, 0.001 µM
# [28] = Genotoxicity in human HCT-15 cells assessed as production of fragmented DNA tails at 1 nM and measured by comet assay; type: toxicity, cell-based; conditions: hct-15, 0.001 µM
smiles,measurement,setting,value
COc1cc([C@@H]2c3cc4c(cc3[C@@H](O[C@@H]3O[C@@H]5CO[C@@H](C)O[C@H]5[C@H](O)[C@H]3O)[C@H]3COC(=O)[C@H]23)OCO4)cc(OC)c1O [ETOPOSIDE],IC50,DU-145,4.13 µM
same,IC50,HCT-15,2.38 µM
same,IC50,HeLa,8.09 µM
same,IC50,T47D,5.58 µM
same,Activity,[1],Toxic
same,Activity,[2],Toxic
same,Activity,[3],Toxic
same,Activity,[4],Non-Toxic
same,Activity,[5],Non-Toxic
same,Activity,[6],Non-Toxic
same,Activity,[7],Toxic
same,Activity,[8],Toxic
same,Activity,[9],Toxic
same,Activity,[10],Toxic
same,Activity,[11],Toxic
same,Activity,[12],Toxic
same,Activity,[13],Non-Toxic
same,Activity,[14],Non-Toxic
same,Activity,[15],Non-Toxic
same,Activity,[16],Non-Toxic
OC1c2ccccc2-c2nc(-c3ccccc3OC(F)(F)F)cc(-c3ccccc3)c21 (stereo unspecified),inhibition,[17],37.4%
same,inhibition,[18],1%
same,inhibition,[19],86%
same,inhibition,[20],13.8%
same,IC50,DU-145,0.71 µM
same,IC50,HCT-15,7.33 µM
same,IC50,HeLa,1730 µM
same,IC50,T47D,1.06 µM
O=C1c2ccccc2-c2nc(-c3ccc(O)cc3)cc(-c3ccccc3)c21,inhibition,[21],0%
OC1c2ccccc2-c2nc(-c3ccccc3)cc(-c3ccccc3)c21 (stereo unspecified),inhibition,[18],0%
O=C1c2ccccc2-c2nc(-c3ccccc3O)cc(-c3ccccc3)c21,inhibition,[21],0%
O=C1c2ccccc2-c2nc(-c3ccccc3)cc(-c3ccccc3)c21,inhibition,[22],2.5%
CC[C@@]1(O)C(=O)OCc2c1cc1n(c2=O)Cc2cc3ccccc3nc2-1 [CAMPTOTHECIN],IC50,DU-145,0.21 µM
same,IC50,HeLa,0.23 µM
same,IC50,T47D,0.09 µM
same,Activity,[23],Toxic
same,Activity,[24],Toxic
same,Activity,[25],Toxic
same,Activity,[26],Non-Toxic
same,Activity,[27],Non-Toxic
same,Activity,[28],Non-Toxic
